The values that follow come from PMC8287724, “Reducing Auditory Nerve Excitability by Acute Antagonism of Ca^2+-Permeable AMPA Receptors” (Frontiers in Synaptic Neuroscience, 2021).

A short description of series [1]: Heart rate and blood oxygenation monitoring during systemic dosing. The series is classed as in vivo, guinea pig. The settings on record: IP injection: IEM-1460 13.5 mg/kg, IEM-1925 8 mg/kg; N = 4. As to the method: This study utilized 21 NIH-strain, pigmented guinea pigs weighing from 400 to 650 g, in accordance with policies and protocols approved by the Institutional Animal Care and Use Committee at Washington University in St. Louis (20180133, 20190035). Animals were anesthetized with intraperitoneal (IP) injection of 100 mg/kg sodium thiobutabarbital (Inactin, Sigma, St. Louis, MO). Once anesthetized, the fur from the head and neck was shaved and a tracheal cannula was placed. The animal was maintained on 0.8–1.2% isoflurane in oxygen using a mechanical ventilator. The ventilator's tidal volume was adjusted to maintain a 5% end-tidal CO2 which was monitored with a CapnoTrue AMP (Bluepoint Medical, Zevenaar, The Netherlands). Body temperature was maintained at 38 degrees C with a DC-powered heating blanket-rectal thermometer (Model 50-7079; Harvard Apparatus). Heart rate and oxygen saturation were monitored with a pulse oximeter (Surgivet, Waukesha, WI). The auditory bulla was exposed ventrally for placement of recording electrodes. The jugular vein was cannulated to maintain hydration with 0.5 mL per hour of Lactated Ringer's solution. […]
Systemic delivery of IEM-1925 (8 mg/kg, IP) reduced CAP amplitude to a similar extent as IEM-1460 (13.5 mg/kg, IP). […] Blood oxygenation and heart rate were monitored along with cochlear physiology during the time course of the experiment. […]

The subject of series [2] is distortion product otoacoustic emissions (DPOAE). In words: Distortion product otoacoustic emissions after systemic delivery. Particulars: IP 13.5 mg/kg. The series is classed as in vivo, guinea pig. As to the method:
As described for local delivery, cochlear output was measured similarly for systemic delivery of IEM-1460 and IEM-1925. Complete details have been previously published (Salt et al., [2013]). Briefly, acoustic tone bursts were applied in a closed sound system. The plastic extension tube of the acoustic assembly (Etymotic Research, ER-10 C) was coupled to the end of the hollow ear bar with the tube tip positioned ~1.5 mm from the tympanic membrane. Stimulus generation and data collection were performed with Tucker Davis System 3 hardware controlled by a custom written program (Microsoft Visual Basic). Stimulus waveforms were routed through a programmable Tucker Davis PA5 attenuator and HB7 headphone amplifier. Stimuli were calibrated from 0.125 to 26 kHz in 1/4 octave steps. A CAP audiogram was obtained at the beginning and end of the experiment. Up to 60 min of baseline audiometric data were obtained prior to drug delivery. Data with baseline changes >20% were excluded. A 13-level tone probe series, at selected frequencies, was repeated at 2-min intervals. Distortion product otoacoustic emissions (DPOAEs) were measured using an ER10C probe system. The two primary tone frequencies were set at 6 kHz (f1) and 7.4 kHz (f2), for a f2/f1-ratio of 1.23, with levels of 65 dB SPL (L1) and 55 dB SPL (L2). […]

The subject of a further series is GluA2-containing AMPARs. More on the design: method as in Magazanik et al., 1997; Buldakova et al., 1999. Particulars: ref Magazanik et al., 1997; Buldakova et al., 1999; cited from earlier work.
In series [3] the test system is auditory nerve compound action potential (CAP). In words: Auditory nerve CAP during intracochlear (apical) perfusion. It is filed as in vivo, guinea pig. As to the method: This study utilized 21 NIH-strain, pigmented guinea pigs weighing from 400 to 650 g, in accordance with policies and protocols approved by the Institutional Animal Care and Use Committee at Washington University in St. Louis (20180133, 20190035). Animals were anesthetized with intraperitoneal (IP) injection of 100 mg/kg sodium thiobutabarbital (Inactin, Sigma, St. Louis, MO). Once anesthetized, the fur from the head and neck was shaved and a tracheal cannula was placed. The animal was maintained on 0.8–1.2% isoflurane in oxygen using a mechanical ventilator. The ventilator's tidal volume was adjusted to maintain a 5% end-tidal CO2 which was monitored with a CapnoTrue AMP (Bluepoint Medical, Zevenaar, The Netherlands). Body temperature was maintained at 38 degrees C with a DC-powered heating blanket-rectal thermometer (Model 50-7079; Harvard Apparatus). Heart rate and oxygen saturation were monitored with a pulse oximeter (Surgivet, Waukesha, WI). The auditory bulla was exposed ventrally for placement of recording electrodes. The jugular vein was cannulated to maintain hydration with 0.5 mL per hour of Lactated Ringer's solution. To prevent middle ear muscle contractions, vecuronium bromide (0.2 mg/kg) was administered immediately prior to data collection and every 1.5 h thereafter.
The head was stabilized in a head-holder with a solid ear bar on the left side and hollow ear bar on the right side, a bite bar, and a snout clamp. Sound calibration, stimulus generation, and recording methods have been detailed previously (Lichtenhan et al., [2016a], [2017]). Briefly, cochlear function measurements were made using MATLAB software (The MathWorks, Natick, MA) and the software utility Playrec. The stimulus was first generated in MATLAB, digitized at 96 kHz, presented to a 24-bit sound card (RME: Fireface802; Sweetwater, Fort Wayne, IN), and then routed to an acoustic probe system (ER-10X; Etymotic Research, Fort Wayne, IN). The ER-10X microphone was calibrated using a reference microphone (1/8” GRAS type 40P) and a custom-made coupling system was used for setting stimulus levels. Sound was presented through the hollow ear bar on the right side via the ER-10X microphone probe.
Cochlear output was recorded as a field potential between a Ag/AgCl ball electrode in the cochlear round window niche and a platinum needle electrode at the vertex of the cranium. Responses to 20 tone bursts (10 with reversed polarity) were averaged for each CAP measurement at a given frequency and level. The CAP audiogram was measured (1–22 kHz, 1/4 octave steps) at the beginning and end of the experiment to determine CAP threshold as a function of tone-burst frequency. Prior to and immediately after IEM-1460 perfusions via the apical cochlear fenestration (see below), CAPs were evoked by tone bursts at selected frequencies and levels. Measurements were repeated at 1- to 2-min intervals to monitor cochlear output and to ensure response stationarity for at least 25 min prior to drug delivery. Data with baseline changes >20% were excluded. The round window niche was monitored for accumulation of fluid.
At each probe frequency, CAP peak-to-peak amplitudes were measured from the first trough (N1) to the first peak (P1). Latencies were measured to the trough of N1. Cochlear output was compared before and after intraperitoneal drug delivery. The data were tested for normality using a Kolmogorov-Smirnov test. For CAP amplitude and latency, significance was assessed with the Mann-Whitney U-test. The Wilcoxon signed rank test was used to assess CAP threshold. Friedman test was used to compare concentrations of drug between perilymph and CSF. A p < 0.05 was considered statistically significant. A Bonferroni correction was used when performing multiple comparison testing. All statistical tests were performed with IBM SPSS Statistics Version 27 (SPSS Inc., Chicago, IL, United States). […]

Where [4] appears, read: 100 μM, across tone levels and frequencies.

Where “and” joins values, the source holds several entries; their conditions need not be identical. Identical values can stand only once.

Turning to `NCCCCCNC1(c2ccccc2)CCCCC1` [IEM-1925], the “temporary reduction in heart rate” value in series [1] is on record as “No such reduction”.
With `C[N+](C)(C)CCCCCNCC12CC3CC(CC(C3)C1)C2` [IEM-1460], the “effect on distortion product otoacoustic emissions (DPOAEs)” value in series [2] was “unaffected”. For the same compound, the IC50 was 500 to 1100 µM in the series on GluA2-containing AMPARs; about 73 µM in series [3] (Cavia porcellus, intracochlear perfusion 0.1 to 4,000 μM, 80 dB SPL probe, averaged for 2 and 16 kHz tones, Boltzmann fit, read-out: IC50, concentration for a 50% CAP reduction). For the same compound, the “reduction of tone-evoked CAP amplitude” value in series [3] (10 μM in perfusion) was ~ 25%. In addition, the “reduction of CAP amplitude” value is reported as ~ 55% in series [3] (100 μM in perfusion pipette, 80 dB SPL tones at 2 and 16 kHz, average); over 50% in series [3] (acute intracochlear delivery, all tone levels and frequencies (abstract, concentration not stated)). The “reduction of CAP amplitude relative to pre-drug baseline” value in series [3] (100 μM, 2 kHz tones) is reported as ~ 60%; in series [3] (100 μM, 16 kHz tones), ~ 30%. Moreover, in series [3] (setting [4]), the “additional CAP delay” value is given as ~ 0.3 ms. Moreover, the “increase of CAP latency relative to pre-drug” value in series [3] (setting [4]) was ~ 10% and 10%. In addition, the “change in CAP threshold” value in series [3] (100 μM, frequencies from 1 to 20 kHz) is given as under 5 dB SPL.
